From patent US20230265151A1, “GIP/GLP1 CO-AGONIST COMPOUNDS” (priority 2020, published 2023)
Like-named read-outs stand apart in the source and are kept apart here. *1 amine or outer side, *2 acyl side, *3 side chain or, on linkers, in order; H or OH if unused. Where a SMILES comes first, the peptide text is derived from it. Side-chain parts run from the residue outwards. [ ]: non-standard residue; d: D form. The star is where a group is joined. αMePhe(2-F) = C[C@](N)(Cc1ccccc1F)C(=O)O; γGlu = O=C(O)[C@H](CCC(=O)[*:2])N[*:1]; C14 diacid = O=C(O)CCCCCCCCCCCCC(=O)*; αMeY = C[C@](N)(Cc1ccc(O)cc1)C(=O)O; 4Pal = N[C@@H](Cc1ccncc1)C(=O)O; αMeL = CC(C)C[C@](C)(N)C(=O)O; Orn = NCCC[C@H](N)C(=O)O; AEEA = NCCOCCOCC(=O)O; Aib = CC(C)(N)C(=O)O

Tests used:
Format in all cases: cell-based
hGIPR = target: T1, hGIPR (Homo sapiens, UniProt P48546); test: Functional cAMP formation (HTRF) in HEK-293 clonal cells expressing hGIPR, 0.1% bovine casein, without or with 1.0% human serum albumin; conditions: for EC50: geometric mean
T1 construct: expressed in transfected cells
T1 sequence (P48546 22-466): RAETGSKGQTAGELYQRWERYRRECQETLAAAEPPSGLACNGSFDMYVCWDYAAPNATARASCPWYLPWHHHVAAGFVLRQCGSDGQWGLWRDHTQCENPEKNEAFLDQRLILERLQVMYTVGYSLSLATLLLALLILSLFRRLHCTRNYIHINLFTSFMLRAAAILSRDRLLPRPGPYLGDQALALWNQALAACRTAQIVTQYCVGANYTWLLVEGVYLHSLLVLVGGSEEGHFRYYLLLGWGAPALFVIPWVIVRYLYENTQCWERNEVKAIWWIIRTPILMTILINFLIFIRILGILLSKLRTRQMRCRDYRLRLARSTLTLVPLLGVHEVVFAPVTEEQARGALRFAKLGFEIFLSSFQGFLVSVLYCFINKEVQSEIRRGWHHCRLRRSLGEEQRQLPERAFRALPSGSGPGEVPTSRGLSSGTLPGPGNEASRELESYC
Method in brief: (§1)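 Cells were stimulated with peptide for 30 min at 37° C, then lysed in buffer carrying cAMP-d2 and anti-cAMP Eu3+-cryptate for a competitive HTRF read after at least 60 min at room temperature. The 665/620 nm ratio was converted to nM cAMP against a standard curve.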

hGCGR = target: T2, hGCGR (Homo sapiens, UniProt P47871); test: Functional cAMP formation (HTRF) in HEK-293 clonal cells expressing hGCGR, 0.1% bovine casein, without or with 1.0% human serum albumin; conditions: geometric mean
T2 construct: expressed in transfected cells
Method in brief: as §1

hGLP-1R = hGLP-1R (Homo sapiens, UniProt P43220); test: Functional cAMP formation (HTRF) in HEK-293 clonal cells expressing hGLP-1R, 0.1% bovine casein, without or with 1.0% human serum albumin; parameters: expressed in transfected cells; conditions: for EC50: geometric mean, read-out: hGLP-1R EC50, nM (SEM, n); for Emax: 0.1% bovine casein, arithmetic mean
Method in brief: as §1

[1] = 0.1% bovine casein and 1.0% human serum albumin, 37° C., read-out: hGIPR EC50, nM (SEM, n)
[2] = HEK293, 0.1% bovine casein and 1.0% human serum albumin, 37° C., percent of maximal response to GIP(1-42)NH2, read-out: hGIPR Emax, % ± SEM
[3] = HEK293, percent of maximal response to GIP(1-42)NH2, 37° C., 0.1% bovine casein, arithmetic mean, read-out: hGIPR Emax, % ± SEM
[4] = cAMP, incubated at 37° C., 0.1% bovine casein (no human serum albumin), read-out: hGIPR EC50, nM (SEM, n)
[5] = 0.1% bovine casein and 1.0% human serum albumin, 37° C., read-out: hGCGR EC50, nM (SEM, n)
[6] = cAMP, incubated at 37° C., 0.1% bovine casein (no human serum albumin), read-out: hGCGR EC50, nM (SEM, n)
[7] = HEK293, percent of maximal response to GLP-1(7-36)NH2, 37° C., read-out: hGLP-1R Emax, % ± SEM

T2 sequence (P47871 26-477): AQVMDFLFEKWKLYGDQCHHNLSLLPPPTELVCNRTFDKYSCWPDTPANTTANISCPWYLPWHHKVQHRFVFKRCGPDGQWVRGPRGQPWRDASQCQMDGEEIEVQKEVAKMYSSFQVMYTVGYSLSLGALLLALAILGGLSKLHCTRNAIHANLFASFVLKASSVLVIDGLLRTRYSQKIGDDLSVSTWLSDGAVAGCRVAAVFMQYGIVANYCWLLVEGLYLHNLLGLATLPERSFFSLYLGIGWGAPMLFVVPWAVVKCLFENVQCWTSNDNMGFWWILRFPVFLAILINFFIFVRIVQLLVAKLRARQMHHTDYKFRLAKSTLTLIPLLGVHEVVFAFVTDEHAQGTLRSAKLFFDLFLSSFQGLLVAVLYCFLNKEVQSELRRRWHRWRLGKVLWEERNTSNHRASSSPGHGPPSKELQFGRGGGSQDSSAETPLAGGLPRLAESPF
Sequence of hGLP-1R (P43220 24-463): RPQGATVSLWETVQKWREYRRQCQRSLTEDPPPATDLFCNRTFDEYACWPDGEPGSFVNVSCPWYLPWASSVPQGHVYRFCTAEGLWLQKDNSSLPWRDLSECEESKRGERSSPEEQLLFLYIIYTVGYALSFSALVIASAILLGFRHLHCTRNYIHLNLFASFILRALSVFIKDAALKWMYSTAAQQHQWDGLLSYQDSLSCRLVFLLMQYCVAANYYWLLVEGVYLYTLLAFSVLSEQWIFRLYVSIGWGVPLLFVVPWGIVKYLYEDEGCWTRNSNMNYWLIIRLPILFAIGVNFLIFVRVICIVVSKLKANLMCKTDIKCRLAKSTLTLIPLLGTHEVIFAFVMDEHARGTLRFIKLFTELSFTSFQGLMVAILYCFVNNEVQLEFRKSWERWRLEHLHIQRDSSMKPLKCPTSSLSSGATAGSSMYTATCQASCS

EC50 (hGLP-1R; 0.1% bovine casein and 1.0% human serum albumin, 37° C.)	EC50 (hGLP-1R; cAMP, incubated at 37° C., 0.1% bovine casein (no human serum albumin))	SMILES	EC50 (hGIPR; [1])	Emax (hGIPR; [2])	Emax (hGIPR; [3])	EC50 (hGIPR; [4])	EC50 (hGCGR; [5])	EC50 (hGCGR; [6])	Emax (hGLP-1R; [7])	Emax (hGIPR; HEK293, read-out: hGIPR Emax, % ± SEM, percent of maximal response to GIP(1-42)NH2, 37° C., 0.1% bovine casein, arithmetic mean)	EC50 (hGIPR; hGIPR EC50, nM (SEM, n), cAMP, incubated at 37° C., 0.1% bovine casein (no human serum albumin))	EC50 (hGCGR; hGCGR EC50, nM (SEM, n), cAMP, incubated at 37° C., 0.1% bovine casein (no human serum albumin))	Emax (hGLP-1R; HEK293, read-out: hGLP-1R Emax, % ± SEM, percent of maximal response to GLP-1(7-36)NH2, 37° C.)
34.6 nM	0.912 nM	CC[C@H](C)[C@H](NC(=O)[C@H](CC(C)C)NC(=O)[C@](C)(Cc1ccc(O)cc1)NC(=O)[C@@H](CCC(=O)O)NC(=O)[C@@H](NC(=O)[C@H](Cc1ccccc1)NC(=O)[C@H](CCC(=O)O)NC(=O)C(C)(C)NC(=O)[C@H](CCC(N)=O)NC(=O)[C@H](C)NC(=O)[C@H](CCCCNC(=O)COCCOCCNC(=O)COCCOCCNC(=O)CC[C@H](NC(=O)CCCCCCCCCCCCC(=O)O)C(=O)O)NC(=O)[C@H](CCCN)NC(=O)[C@H](CC(=O)O)NC(=O)[C@H](CC(C)C)NC(=O)[C@](C)(CC(C)C)NC(=O)[C@@H](NC(=O)[C@H](CO)NC(=O)[C@H](Cc1ccncc1)NC(=O)[C@H](CC(=O)O)NC(=O)[C@H](CO)NC(=O)[C@@H](NC(=O)[C@](C)(Cc1ccccc1F)NC(=O)[C@@H](NC(=O)CNC(=O)[C@H](CCC(=O)O)NC(=O)C(C)(C)NC(=O)[C@@H](N)Cc1ccc(O)cc1)[C@@H](C)O)[C@@H](C)O)[C@@H](C)CC)[C@@H](C)CC)C(=O)N[C@@H](CCC(=O)O)C(=O)NCC(=O)NCC(=O)N[C@@H](CCCCNC(=O)COCCOCCNC(=O)COCCOCCNC(=O)CC[C@H](NC(=O)CCCCCCCCCCCCC(=O)O)C(=O)O)C(=O)N[C@@H](CO)C(=O)N[C@@H](CO)C(=O)NCC(=O)N[C@@H](CCCN)C(=O)N1CCC[C@H]1C(=O)N1CCC[C@H]1C(=O)N1CCC[C@H]1C(=O)N[C@@H](CCCN)C(N)=O [Example 155] (H-Y[Aib]EGT[αMePhe(2-F)]TSD[4Pal]SI[αMeL]LD[Orn]K([AEEA-AEEA-γGlu-C14 diacid])AQ[Aib]EFI[dE][αMeY]LIEGGK([AEEA-AEEA-γGlu-C14 diacid])SSG[Orn]PPP[Orn]-NH2; N-terminus assumed)	1.25 nM	96.5 ± 1.04%	96.6 ± 7.55%	0.0309 nM	> 9950 nM	> 9950 nM	99 ± 5.16%	–	–	–	–
–	–	CC[C@H](C)[C@H](NC(=O)[C@H](CC(C)C)NC(=O)[C@](C)(Cc1ccc(O)cc1)NC(=O)[C@@H](CCC(=O)O)NC(=O)[C@@H](NC(=O)[C@H](Cc1ccccc1)NC(=O)[C@H](CCC(=O)O)NC(=O)[C@H](Cc1ccncc1)NC(=O)[C@H](CCC(N)=O)NC(=O)[C@H](C)NC(=O)[C@H](CCCCNC(=O)COCCOCCNC(=O)COCCOCCNC(=O)CC[C@H](NC(=O)CCCCCCCCCCCCC(=O)O)C(=O)O)NC(=O)[C@H](CCCN)NC(=O)[C@H](CC(=O)O)NC(=O)[C@H](CC(C)C)NC(=O)[C@](C)(CC(C)C)NC(=O)[C@@H](NC(=O)[C@H](CO)NC(=O)[C@H](Cc1ccncc1)NC(=O)[C@H](CC(=O)O)NC(=O)[C@H](CO)NC(=O)[C@@H](NC(=O)[C@](C)(Cc1ccccc1F)NC(=O)[C@@H](NC(=O)CNC(=O)[C@H](CCC(=O)O)NC(=O)C(C)(C)NC(=O)[C@@H](N)Cc1ccc(O)cc1)[C@@H](C)O)[C@@H](C)O)[C@@H](C)CC)[C@@H](C)CC)C(=O)N[C@@H](CCC(=O)O)C(=O)NCC(=O)NCC(=O)N[C@@H](CCCCNC(=O)COCCOCCNC(=O)COCCOCCNC(=O)CC[C@H](NC(=O)CCCCCCCCCCCCC(=O)O)C(=O)O)C(=O)N[C@@H](CO)C(=O)N[C@@H](CO)C(=O)NCC(=O)N[C@@H](C)C(=O)N1CCC[C@H]1C(=O)N1CCC[C@H]1C(=O)N1CCC[C@H]1C(=O)N[C@@H](CO)C(N)=O [Example 156]	–	–	89.9%	–	–	> 9950 nM	110%	–	–	–	–
–	–	CC[C@H](C)[C@H](NC(=O)[C@H](CC(C)C)NC(=O)[C@](C)(Cc1ccc(O)cc1)NC(=O)[C@@H](CCC(=O)O)NC(=O)[C@@H](NC(=O)[C@H](Cc1ccccc1)NC(=O)[C@H](Cc1ccncc1)NC(=O)C(C)(C)NC(=O)[C@H](CCC(N)=O)NC(=O)[C@H](C)NC(=O)[C@H](CCCCNC(=O)COCCOCCNC(=O)COCCOCCNC(=O)CC[C@H](NC(=O)CCCCCCCCCCCCC(=O)O)C(=O)O)NC(=O)[C@H](CCCN)NC(=O)[C@H](CC(=O)O)NC(=O)[C@H](CC(C)C)NC(=O)[C@](C)(CC(C)C)NC(=O)[C@@H](NC(=O)[C@H](CO)NC(=O)[C@H](Cc1ccncc1)NC(=O)[C@H](CC(=O)O)NC(=O)[C@H](CO)NC(=O)[C@@H](NC(=O)[C@](C)(Cc1ccccc1F)NC(=O)[C@@H](NC(=O)CNC(=O)[C@H](CCC(=O)O)NC(=O)C(C)(C)NC(=O)[C@@H](N)Cc1ccc(O)cc1)[C@@H](C)O)[C@@H](C)O)[C@@H](C)CC)[C@@H](C)CC)C(=O)N[C@@H](CCC(=O)O)C(=O)NCC(=O)NCC(=O)N[C@@H](CCCCNC(=O)COCCOCCNC(=O)COCCOCCNC(=O)CC[C@H](NC(=O)CCCCCCCCCCCCC(=O)O)C(=O)O)C(=O)N[C@@H](CO)C(=O)N[C@@H](CO)C(=O)NCC(=O)N[C@@H](C)C(=O)N1CCC[C@H]1C(=O)N1CCC[C@H]1C(=O)N1CCC[C@H]1C(=O)N[C@@H](CO)C(N)=O [Example 157]	0.718 nM	89.6 ± 3.39%	98.8 ± 1.33%	0.0286 nM	> 9950 nM	> 9950 nM	98.5 ± 4.73%	–	–	–	–
–	–	CC[C@H](C)[C@H](NC(=O)[C@H](CC(C)C)NC(=O)[C@](C)(Cc1ccc(O)cc1)NC(=O)[C@H](CCC(=O)O)NC(=O)[C@@H](NC(=O)[C@H](Cc1ccccc1)NC(=O)[C@H](CCC(=O)O)NC(=O)C(C)(C)NC(=O)[C@H](CCC(N)=O)NC(=O)[C@H](C)NC(=O)[C@H](CCCCNC(=O)COCCOCCNC(=O)COCCOCCNC(=O)CC[C@H](NC(=O)CCCCCCCCCCCCC(=O)O)C(=O)O)NC(=O)[C@H](CCCN)NC(=O)[C@H](CC(=O)O)NC(=O)[C@H](CC(C)C)NC(=O)[C@](C)(CC(C)C)NC(=O)[C@@H](NC(=O)[C@H](CO)NC(=O)[C@H](Cc1ccncc1)NC(=O)[C@H](CC(=O)O)NC(=O)[C@H](CO)NC(=O)[C@@H](NC(=O)[C@](C)(Cc1ccccc1F)NC(=O)[C@@H](NC(=O)CNC(=O)[C@H](CCC(=O)O)NC(=O)C(C)(C)NC(=O)[C@@H](N)Cc1ccc(O)cc1)[C@@H](C)O)[C@@H](C)O)[C@@H](C)CC)[C@@H](C)CC)C(=O)N[C@@H](CCC(=O)O)C(=O)NCC(=O)NCC(=O)N[C@@H](CCCCNC(=O)COCCOCCNC(=O)COCCOCCNC(=O)CC[C@H](NC(=O)CCCCCCCCCCCCC(=O)O)C(=O)O)C(=O)N[C@@H](CO)C(=O)N[C@@H](CO)C(=O)NCC(=O)N[C@@H](C)C(=O)N1CCC[C@H]1C(=O)N1CCC[C@H]1C(=O)N1CCC[C@H]1C(=O)N[C@@H](CO)C(N)=O [Example 158]	–	–	–	–	–	–	–	93.4%	0.0204 nM	> 9950 nM	87.2%
